In the test the target is Vascular endothelial growth factor receptor 2 (Homo sapiens, UniProt P35968). The test can be described thus: Inhibition of KDR.

Each structure is given as a SMILES string.

Sequence of Vascular endothelial growth factor receptor 2 (P35968 whole entry): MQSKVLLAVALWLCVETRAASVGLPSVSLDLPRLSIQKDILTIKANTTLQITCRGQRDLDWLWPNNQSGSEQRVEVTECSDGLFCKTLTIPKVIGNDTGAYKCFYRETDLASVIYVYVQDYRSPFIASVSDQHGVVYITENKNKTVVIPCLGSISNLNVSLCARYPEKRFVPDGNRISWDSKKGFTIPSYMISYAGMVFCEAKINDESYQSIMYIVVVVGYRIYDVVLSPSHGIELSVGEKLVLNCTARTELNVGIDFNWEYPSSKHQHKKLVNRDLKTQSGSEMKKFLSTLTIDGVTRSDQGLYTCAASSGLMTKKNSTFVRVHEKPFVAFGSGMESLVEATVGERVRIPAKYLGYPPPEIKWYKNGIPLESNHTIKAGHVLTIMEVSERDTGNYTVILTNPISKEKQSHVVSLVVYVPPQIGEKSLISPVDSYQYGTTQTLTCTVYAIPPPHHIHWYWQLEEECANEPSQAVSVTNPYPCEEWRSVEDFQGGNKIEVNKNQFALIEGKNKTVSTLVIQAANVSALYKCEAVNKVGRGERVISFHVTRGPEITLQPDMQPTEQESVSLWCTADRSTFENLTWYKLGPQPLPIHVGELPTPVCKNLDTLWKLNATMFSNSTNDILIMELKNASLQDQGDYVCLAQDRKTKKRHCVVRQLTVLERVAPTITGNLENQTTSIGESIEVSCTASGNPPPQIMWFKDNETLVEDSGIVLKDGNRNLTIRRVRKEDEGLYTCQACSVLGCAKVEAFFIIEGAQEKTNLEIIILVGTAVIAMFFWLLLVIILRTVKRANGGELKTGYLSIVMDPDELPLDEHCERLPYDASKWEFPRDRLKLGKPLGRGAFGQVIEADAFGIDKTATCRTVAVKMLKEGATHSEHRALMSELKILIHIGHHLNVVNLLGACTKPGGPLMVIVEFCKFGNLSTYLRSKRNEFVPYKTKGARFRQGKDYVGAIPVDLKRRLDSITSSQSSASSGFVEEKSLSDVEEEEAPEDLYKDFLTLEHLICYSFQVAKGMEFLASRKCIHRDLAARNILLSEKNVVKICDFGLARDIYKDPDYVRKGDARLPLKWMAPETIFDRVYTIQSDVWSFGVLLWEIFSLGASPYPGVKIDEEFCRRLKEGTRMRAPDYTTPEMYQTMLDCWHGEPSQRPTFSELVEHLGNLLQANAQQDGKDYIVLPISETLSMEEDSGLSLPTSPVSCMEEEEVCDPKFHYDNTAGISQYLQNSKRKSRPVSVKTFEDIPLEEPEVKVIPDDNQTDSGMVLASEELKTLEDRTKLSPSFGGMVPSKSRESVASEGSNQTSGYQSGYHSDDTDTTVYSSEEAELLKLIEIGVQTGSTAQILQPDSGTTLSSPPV

One may read the IC50 as the concentration needed to halve the response being measured. High values mean weaker potency in that assay, low ones greater potency in that assay. Take `Cc1sc2ncnc(N)c2c1-c1ccc(NC(=O)Nc2cc(C(F)(F)F)ccc2F)cc1`: the midpoint of inhibition, the IC50, lay at 45.7 nM.
